# According to ChEMBL document CHEMBL1201862, “PubChem BioAssay data set” (2004):
# Calls of active or inactive are those of the source.
# What was measured:
# [1] = target: Lytic switch protein BZLF1 (Epstein-Barr virus (strain B95-8) (HHV-4) (Human herpesvirus 4), UniProt P03206); assay: inhibition of BZLF1 ZTA DNA binding – biochemical, fluorescence polarization, Epstein-Barr virus, 1536-well, counter-screen for EBNA-1 inhibitor project, dose response (AID 2377); set-up: species or system human gammaherpesvirus 4;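 also: fluorescence polarization of Cy5-labelled ZRE DNA probe bound by purified Zta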
# [2] = target: Epstein-Barr nuclear antigen 1 (Epstein-Barr virus (strain B95-8) (HHV-4) (Human herpesvirus 4), UniProt P03211); assay: inhibition of EBV nuclear antigen 1 DNA binding – biochemical, fluorescence polarization, 1536-well, dose response (AID 2381); set-up: species or system human gammaherpesvirus 4;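 also: fluorescence polarization of a Cy5 DNA probe bound by EBNA-1 protein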
# [3] = target: Luciferin 4-monooxygenase (Photinus pyralis, UniProt P08659); assay: Counter Screen for Luciferase-based Assay Positives. [Related pubchem assays: 620, 618, 411 ]
# HT-1080 = assay: HT1080 cell viability loss – fluorescence readout (AID 620); assay type: functional, cell-based; details: Homo sapiens
# Estrogen receptor = target: T1, Estrogen receptor (Homo sapiens, UniProt P03372);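 also: potency for inhibiting coactivator peptide recruitment to the receptor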
# T1 sequence (P03372 whole entry): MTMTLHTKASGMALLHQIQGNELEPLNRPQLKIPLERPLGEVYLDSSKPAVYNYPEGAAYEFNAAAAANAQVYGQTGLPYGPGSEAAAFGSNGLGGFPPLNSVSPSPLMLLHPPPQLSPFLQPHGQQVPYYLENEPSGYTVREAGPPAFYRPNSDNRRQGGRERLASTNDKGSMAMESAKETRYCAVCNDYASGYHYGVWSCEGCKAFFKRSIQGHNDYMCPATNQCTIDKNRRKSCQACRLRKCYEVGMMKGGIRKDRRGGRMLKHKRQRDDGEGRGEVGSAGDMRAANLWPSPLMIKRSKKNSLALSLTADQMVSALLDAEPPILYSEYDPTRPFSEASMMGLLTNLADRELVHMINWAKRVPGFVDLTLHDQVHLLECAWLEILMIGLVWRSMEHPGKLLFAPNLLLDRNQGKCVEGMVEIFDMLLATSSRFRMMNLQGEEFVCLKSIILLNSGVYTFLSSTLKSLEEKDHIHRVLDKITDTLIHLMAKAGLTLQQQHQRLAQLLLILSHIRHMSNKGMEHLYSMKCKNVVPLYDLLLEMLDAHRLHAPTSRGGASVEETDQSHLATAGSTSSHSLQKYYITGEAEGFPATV
# [4] = target: Peroxisome proliferator-activated receptor gamma/Nuclear receptor coactivator 2 (Homo sapiens, UniProt P37231); assay type: functional;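 also: agonist potency for raising coactivator recruitment to the receptor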
# [5] = target: Peroxisome proliferator-activated receptor gamma/Nuclear receptor coactivator 3 (Homo sapiens, UniProt P37231); assay type: functional;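 also: agonist potency for raising coactivator recruitment to the receptor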
# [6] = target: Peroxisome proliferator-activated receptor gamma/Nuclear receptor coactivator 1 (Homo sapiens, UniProt P37231); assay type: functional;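 also: agonist potency as compounds enhance coactivator SRC-1 recruitment to PPARgamma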
# Cytochrome P450 2C19 = Cytochrome P450 2C19 (Homo sapiens, UniProt P33261); assay: Cytochrome panel assay with activity outcomes. Panel member name: p450-cyp2c19 Compounds with AC50 equal or less than 10 uM are considered active; assay type: functional; details: read-out: AC50
# Cytochrome P450 2C9 = Cytochrome P450 2C9 (Homo sapiens, UniProt P11712)
# [7] = target: T2, E3 ubiquitin-protein ligase XIAP (Homo sapiens, UniProt P98170); assay: Counter Screen using XIAP-Bir3 for Chemical Antagonists of Bir1/2 domains of IAP-family anti-apoptotic proteins. [Related pubchem assays (depositor defined):AID1018, AID1449, AID1514, AID1638, AID1749, AID1750, AID488957, AID488963]
# [8] = target: T3, Corticotropin-releasing factor receptor 2/Corticotropin-releasing factor-binding protein (Homo sapiens, UniProt P24387+Q13324); assay: Dose Response confirmation of uHTS hits for small molecule antagonists of the CRF-binding protein and CRF-R2 receptor complex.; assay type: functional; details: read-out: IC50_Mean
# T3 sequence (Q13324 whole entry): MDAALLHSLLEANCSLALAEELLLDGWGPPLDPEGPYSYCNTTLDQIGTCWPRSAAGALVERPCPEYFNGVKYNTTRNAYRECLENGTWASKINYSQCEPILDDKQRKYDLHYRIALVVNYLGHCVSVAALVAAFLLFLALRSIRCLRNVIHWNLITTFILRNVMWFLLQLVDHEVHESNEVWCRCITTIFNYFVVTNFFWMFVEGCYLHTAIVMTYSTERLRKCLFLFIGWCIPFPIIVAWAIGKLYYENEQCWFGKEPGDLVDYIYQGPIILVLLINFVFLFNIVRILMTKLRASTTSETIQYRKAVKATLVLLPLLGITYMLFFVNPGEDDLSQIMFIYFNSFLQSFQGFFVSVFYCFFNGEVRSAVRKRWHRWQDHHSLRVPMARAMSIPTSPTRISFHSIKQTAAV
# T3 sequence (P24387 whole entry): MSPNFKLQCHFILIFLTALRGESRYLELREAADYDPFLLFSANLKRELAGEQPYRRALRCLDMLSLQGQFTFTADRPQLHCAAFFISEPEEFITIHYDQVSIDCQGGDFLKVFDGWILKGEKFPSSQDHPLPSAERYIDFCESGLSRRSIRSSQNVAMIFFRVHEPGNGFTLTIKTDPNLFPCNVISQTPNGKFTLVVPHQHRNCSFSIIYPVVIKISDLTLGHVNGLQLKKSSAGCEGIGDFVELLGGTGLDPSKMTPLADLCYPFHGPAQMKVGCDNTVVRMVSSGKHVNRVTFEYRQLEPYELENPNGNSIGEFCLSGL
# [9] = target: T2, E3 ubiquitin-protein ligase XIAP; assay: small molecules displacing peptide from XIAP – biochemical, IAP family, fluorescence polarization (AID 1018); assay type: functional
# [10] = target: T3, Corticotropin-releasing factor receptor 2/Corticotropin-releasing factor-binding protein; assay: activators of CRF receptor 2 with binding protein – uHTS hits, confirmation (AID 602473); assay type: functional; details: read-out: EC50_Mean
# [11] = target: T4, Nuclear receptor subfamily 0 group B member 1 (Homo sapiens, UniProt P51843); assay type: functional, cell-based;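 also: HEK293T cells transfected with SF-1 and DAX-1 plus StAR promoter luciferase reporter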
# T4 sequence (P51843 whole entry): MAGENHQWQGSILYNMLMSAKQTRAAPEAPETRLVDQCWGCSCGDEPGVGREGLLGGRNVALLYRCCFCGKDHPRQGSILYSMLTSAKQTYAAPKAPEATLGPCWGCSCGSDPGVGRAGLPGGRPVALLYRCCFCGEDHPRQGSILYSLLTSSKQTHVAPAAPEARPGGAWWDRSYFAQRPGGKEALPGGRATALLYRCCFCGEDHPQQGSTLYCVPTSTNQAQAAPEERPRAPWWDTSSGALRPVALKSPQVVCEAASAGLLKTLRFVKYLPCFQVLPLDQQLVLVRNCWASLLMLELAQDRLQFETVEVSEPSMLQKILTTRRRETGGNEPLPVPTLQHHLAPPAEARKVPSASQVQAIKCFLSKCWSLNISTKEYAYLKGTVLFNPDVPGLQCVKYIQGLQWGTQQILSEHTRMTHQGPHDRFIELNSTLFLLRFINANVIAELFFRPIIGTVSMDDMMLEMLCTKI
# [12] = DRD fibroblast viability loss – cell-based, non-viral oncogenic, luminescence, dose response (AID 1934); assay type: functional; details: Homo sapiens
# HEK293 = assay: EBV LMP1 TES2 canonical NF-kB signalling blockers – cell-based, HEK293, luciferase, cherry-pick, dose response (AID 588343); assay type: functional; details: Homo sapiens
# BJ [13] = assay: BJ-TERT fibroblast viability loss – cell-based, RAS-independent, luminescence, dose response (AID 1933); assay type: functional; details: Homo sapiens
# BJ [14] = assay: cells; assay type: functional, cell-based; details: Homo sapiens
# cells = assay type: functional, cell-based
# BJ [15] = assay: BJ-TERT-LT-ST fibroblast viability loss – cell-based, RAS-independent, luminescence, dose response (AID 1935); assay type: functional; details: Homo sapiens;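 also: BJ fibroblasts immortalized with TERT plus LT and ST oncogenes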
# [16] = target: Sphingosine 1-phosphate receptor 1 (Homo sapiens, UniProt P21453); assay type: functional;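 also: Tango beta-arrestin reporter U2OS cells stimulated with S1P near its EC80; inhibitor potency meaning antagonism of receptor activation by the natural agonist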
# Vero [17] = assay: cells; assay type: functional, cell-based; details: Chlorocebus sabaeus
# [18] = target: T5, Sphingosine 1-phosphate receptor 4 (Homo sapiens, UniProt O95977); assay: Fluorescence dose response cell-based high throughput screening assay for antagonists of the Sphingosine 1-Phosphate Receptor 4 (S1P4). [Related pubchem assays: 1524 (Confirmation in triplicates.), 1510 (Primary screen.)]; assay type: functional
# T5 sequence (O95977 whole entry): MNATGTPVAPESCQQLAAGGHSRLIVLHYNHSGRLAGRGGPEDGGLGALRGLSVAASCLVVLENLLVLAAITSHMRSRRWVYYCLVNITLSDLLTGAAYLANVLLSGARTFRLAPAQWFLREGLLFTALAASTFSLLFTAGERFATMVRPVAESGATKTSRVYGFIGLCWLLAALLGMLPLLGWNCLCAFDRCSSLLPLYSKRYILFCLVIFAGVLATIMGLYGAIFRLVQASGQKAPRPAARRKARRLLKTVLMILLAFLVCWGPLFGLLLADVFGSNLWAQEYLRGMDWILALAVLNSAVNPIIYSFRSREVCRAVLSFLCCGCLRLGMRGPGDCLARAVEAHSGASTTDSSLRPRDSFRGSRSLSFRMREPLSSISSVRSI
# Vero [19] = assay: cells; assay type: functional; details: Chlorocebus sabaeus
# Streptococcus = assay: GAS UMAA2166 growth inhibition – luminescence, BacTiterGlo, counter-screen for streptokinase expression inhibitor project, dose response (AID 1915); assay type: functional, organism-based;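 also: potency for reduction of bacterial viability or growth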
# [20] = CCR5-tropic HIV-1 fusion blockers – cell-based, CCR5-tropic Env, dose response (AID 2279); assay type: functional
# [21] = tested on: Streptococcus sp. 'group A'; assay: Streptococcus pyogenes SK(-)GAS viability under kanamycin – luminescence, BacTiterGlo, confirmation, counter-screen for streptokinase expression inhibitor project, dose response (AID 1900); assay type: functional, organism-based
# [22] = target: T6, Voltage-gated N-type calcium channel alpha-1B subunit/Amyloid beta A4 precursor protein-binding family A member 1 (Homo sapiens, UniProt Q00975+Q02410); assay type: protein assay
# Streptokinase A = target: T7, Streptokinase A (Streptococcus pyogenes serotype M1, UniProt P10520); assay: viability-normalized secreted streptokinase activity reduction – plasminogen activation absorbance, OD405, dose response (AID 1914); assay type: functional, Streptococcus pyogenes M1 GAS;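 also: secreted streptokinase activity via plasminogen activation per viability signal from cell pellet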
# T7 sequence (P10520 whole entry): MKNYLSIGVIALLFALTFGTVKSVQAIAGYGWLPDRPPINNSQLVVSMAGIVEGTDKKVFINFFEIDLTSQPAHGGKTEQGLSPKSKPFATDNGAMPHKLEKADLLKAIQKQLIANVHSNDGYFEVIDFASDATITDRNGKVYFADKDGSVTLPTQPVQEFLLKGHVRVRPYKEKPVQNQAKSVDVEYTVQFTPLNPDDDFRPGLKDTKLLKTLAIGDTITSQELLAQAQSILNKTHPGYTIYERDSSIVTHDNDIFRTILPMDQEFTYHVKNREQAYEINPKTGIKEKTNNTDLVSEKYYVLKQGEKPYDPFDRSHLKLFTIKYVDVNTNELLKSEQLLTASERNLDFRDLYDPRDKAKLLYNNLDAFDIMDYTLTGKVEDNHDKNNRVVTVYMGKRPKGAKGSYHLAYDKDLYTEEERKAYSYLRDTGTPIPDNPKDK
# [23] = target: T6, Voltage-gated N-type calcium channel alpha-1B subunit/Amyloid beta A4 precursor protein-binding family A member 1; assay type: protein assay; remark: listed apart in the source
# [24] = target: Induced myeloid leukemia cell differentiation protein Mcl-1 (Homo sapiens, UniProt Q07820); assay type: functional
# Chain of Epstein-Barr nuclear antigen 1 (P03211 whole entry): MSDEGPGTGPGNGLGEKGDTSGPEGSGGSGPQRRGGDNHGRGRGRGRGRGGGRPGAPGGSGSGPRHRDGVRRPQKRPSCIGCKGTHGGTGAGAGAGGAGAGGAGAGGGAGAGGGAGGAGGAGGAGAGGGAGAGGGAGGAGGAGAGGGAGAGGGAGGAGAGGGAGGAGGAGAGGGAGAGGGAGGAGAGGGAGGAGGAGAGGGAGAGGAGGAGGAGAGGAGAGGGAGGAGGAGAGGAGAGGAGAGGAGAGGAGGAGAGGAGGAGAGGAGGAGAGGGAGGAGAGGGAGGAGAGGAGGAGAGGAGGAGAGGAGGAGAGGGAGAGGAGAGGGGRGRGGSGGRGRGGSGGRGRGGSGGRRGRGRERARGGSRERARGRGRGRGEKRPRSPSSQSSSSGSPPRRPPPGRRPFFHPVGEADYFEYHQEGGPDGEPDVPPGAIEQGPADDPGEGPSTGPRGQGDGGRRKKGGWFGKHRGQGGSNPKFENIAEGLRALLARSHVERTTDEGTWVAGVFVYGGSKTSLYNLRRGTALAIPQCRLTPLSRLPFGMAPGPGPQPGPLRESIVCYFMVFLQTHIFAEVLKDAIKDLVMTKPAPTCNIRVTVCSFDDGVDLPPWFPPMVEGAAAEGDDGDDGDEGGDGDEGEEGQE
# Chain of Peroxisome proliferator-activated receptor gamma/Nuclear receptor coactivator 3 (P37231 whole entry): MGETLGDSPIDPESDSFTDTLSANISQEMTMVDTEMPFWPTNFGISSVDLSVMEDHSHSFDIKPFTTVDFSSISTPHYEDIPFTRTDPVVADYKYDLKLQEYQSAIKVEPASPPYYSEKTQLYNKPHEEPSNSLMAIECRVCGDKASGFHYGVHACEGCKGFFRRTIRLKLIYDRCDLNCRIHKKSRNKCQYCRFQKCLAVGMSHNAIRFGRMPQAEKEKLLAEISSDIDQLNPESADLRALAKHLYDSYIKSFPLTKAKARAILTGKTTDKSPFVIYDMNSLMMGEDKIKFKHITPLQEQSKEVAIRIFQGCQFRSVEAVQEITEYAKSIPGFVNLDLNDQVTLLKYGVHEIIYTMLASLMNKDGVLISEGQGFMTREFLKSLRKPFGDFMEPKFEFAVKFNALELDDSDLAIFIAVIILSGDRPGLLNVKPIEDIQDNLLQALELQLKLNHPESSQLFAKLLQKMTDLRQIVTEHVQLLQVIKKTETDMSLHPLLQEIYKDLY
# Chain of Peroxisome proliferator-activated receptor gamma/Nuclear receptor coactivator 3 (Q9Y6Q9 whole entry, further chain): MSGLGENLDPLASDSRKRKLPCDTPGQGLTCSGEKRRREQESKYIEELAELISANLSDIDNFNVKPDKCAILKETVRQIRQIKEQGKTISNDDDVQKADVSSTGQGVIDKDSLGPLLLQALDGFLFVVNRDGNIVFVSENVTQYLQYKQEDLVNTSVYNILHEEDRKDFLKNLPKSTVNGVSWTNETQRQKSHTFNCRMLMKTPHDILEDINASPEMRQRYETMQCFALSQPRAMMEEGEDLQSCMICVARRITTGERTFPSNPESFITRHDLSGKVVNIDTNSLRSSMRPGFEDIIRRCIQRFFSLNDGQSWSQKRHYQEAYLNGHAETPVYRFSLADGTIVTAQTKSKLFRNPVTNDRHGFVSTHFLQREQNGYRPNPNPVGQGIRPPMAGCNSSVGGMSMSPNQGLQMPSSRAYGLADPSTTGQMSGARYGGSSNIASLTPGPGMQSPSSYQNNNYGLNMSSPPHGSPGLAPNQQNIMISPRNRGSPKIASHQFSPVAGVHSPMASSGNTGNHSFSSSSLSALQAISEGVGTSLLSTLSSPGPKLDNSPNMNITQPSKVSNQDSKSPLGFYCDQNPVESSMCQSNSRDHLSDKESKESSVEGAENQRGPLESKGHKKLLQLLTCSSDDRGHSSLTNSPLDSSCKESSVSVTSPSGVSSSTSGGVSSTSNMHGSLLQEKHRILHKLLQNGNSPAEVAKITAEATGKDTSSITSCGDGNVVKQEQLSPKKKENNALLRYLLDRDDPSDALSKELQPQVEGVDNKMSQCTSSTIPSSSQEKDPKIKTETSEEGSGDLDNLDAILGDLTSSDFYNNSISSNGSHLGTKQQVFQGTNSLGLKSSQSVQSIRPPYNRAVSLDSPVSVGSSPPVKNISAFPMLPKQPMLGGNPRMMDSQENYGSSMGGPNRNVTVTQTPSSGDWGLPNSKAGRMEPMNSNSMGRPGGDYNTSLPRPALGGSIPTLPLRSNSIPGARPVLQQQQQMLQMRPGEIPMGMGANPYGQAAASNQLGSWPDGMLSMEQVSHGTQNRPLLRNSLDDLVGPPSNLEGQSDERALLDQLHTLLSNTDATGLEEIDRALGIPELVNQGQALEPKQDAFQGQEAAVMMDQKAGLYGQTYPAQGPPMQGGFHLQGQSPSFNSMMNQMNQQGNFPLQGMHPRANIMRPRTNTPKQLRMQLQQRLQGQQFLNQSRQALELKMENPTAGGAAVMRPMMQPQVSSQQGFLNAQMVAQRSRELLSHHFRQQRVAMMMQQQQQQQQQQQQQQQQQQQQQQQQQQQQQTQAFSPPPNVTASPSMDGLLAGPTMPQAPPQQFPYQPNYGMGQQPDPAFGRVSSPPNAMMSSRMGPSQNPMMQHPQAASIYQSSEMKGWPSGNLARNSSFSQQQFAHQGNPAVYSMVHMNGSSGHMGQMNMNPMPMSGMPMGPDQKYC
# Chain of Peroxisome proliferator-activated receptor gamma/Nuclear receptor coactivator 2 (P37231 whole entry): as the sequence (P37231 whole entry) above
# Chain of Peroxisome proliferator-activated receptor gamma/Nuclear receptor coactivator 2 (Q15596 whole entry, further chain): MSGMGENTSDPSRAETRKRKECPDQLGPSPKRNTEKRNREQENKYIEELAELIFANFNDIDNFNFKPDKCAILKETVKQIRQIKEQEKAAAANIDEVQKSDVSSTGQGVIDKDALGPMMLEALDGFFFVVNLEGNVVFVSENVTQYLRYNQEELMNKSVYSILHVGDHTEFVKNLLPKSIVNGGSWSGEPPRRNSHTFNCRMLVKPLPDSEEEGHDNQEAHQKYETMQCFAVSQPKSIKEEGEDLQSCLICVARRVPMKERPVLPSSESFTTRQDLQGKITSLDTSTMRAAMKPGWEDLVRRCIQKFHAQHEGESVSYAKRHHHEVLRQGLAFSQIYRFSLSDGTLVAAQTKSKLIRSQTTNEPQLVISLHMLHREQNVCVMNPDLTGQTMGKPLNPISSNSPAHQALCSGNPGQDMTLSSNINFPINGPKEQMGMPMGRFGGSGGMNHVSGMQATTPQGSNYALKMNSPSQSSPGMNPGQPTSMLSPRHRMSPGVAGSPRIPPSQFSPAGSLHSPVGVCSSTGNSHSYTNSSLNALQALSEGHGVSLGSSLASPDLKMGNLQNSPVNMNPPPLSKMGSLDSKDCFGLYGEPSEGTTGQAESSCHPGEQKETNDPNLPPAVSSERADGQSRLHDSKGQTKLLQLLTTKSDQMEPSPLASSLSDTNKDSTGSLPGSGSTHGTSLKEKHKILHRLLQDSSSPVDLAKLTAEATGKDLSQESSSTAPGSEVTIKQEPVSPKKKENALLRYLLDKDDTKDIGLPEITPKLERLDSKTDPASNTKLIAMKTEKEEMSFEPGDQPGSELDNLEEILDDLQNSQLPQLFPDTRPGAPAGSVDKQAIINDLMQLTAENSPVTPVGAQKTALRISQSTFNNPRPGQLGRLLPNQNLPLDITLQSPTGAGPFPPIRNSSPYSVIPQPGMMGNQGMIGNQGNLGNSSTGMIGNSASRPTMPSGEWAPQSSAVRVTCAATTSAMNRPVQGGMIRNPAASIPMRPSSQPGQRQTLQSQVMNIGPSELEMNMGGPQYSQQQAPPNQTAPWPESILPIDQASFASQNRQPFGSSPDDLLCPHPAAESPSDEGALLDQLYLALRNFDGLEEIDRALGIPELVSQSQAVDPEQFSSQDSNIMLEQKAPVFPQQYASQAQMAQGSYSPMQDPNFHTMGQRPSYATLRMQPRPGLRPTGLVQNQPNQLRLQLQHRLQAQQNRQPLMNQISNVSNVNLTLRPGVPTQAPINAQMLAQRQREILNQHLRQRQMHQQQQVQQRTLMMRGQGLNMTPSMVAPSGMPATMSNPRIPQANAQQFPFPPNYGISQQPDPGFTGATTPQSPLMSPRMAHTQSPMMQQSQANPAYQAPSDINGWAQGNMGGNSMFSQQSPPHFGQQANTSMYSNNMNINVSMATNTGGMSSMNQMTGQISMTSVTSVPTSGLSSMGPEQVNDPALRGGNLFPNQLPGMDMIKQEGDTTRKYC
# Chain of Luciferin 4-monooxygenase (P08659 whole entry): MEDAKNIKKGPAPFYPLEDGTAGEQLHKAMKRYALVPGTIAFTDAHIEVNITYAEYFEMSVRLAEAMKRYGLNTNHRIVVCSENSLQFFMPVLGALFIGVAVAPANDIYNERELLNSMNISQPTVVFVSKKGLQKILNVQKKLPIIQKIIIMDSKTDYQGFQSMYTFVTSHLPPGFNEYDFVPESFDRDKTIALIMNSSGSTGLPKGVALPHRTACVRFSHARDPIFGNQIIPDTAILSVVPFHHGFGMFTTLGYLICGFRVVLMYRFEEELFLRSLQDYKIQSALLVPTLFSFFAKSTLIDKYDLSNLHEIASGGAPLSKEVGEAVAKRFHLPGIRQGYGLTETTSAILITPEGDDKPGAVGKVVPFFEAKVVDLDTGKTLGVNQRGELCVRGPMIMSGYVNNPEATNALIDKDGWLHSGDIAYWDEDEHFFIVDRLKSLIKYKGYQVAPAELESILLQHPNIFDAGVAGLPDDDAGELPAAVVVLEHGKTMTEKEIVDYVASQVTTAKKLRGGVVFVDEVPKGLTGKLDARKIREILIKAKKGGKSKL
structure (smiles),measurement,setting,value
O=C(COC(=O)/C=C/c1ccccc1)Nc1cc(C(F)(F)F)ccc1N1CCOCC1,IC50,[1],> 111 µM (not active)
same,IC50,[2],7.3 µM (active)
Fc1ccccc1OCCSc1nnnn1-c1ccccc1,EC50,[3],3.32 µM (active)
same,EC50,HT-1080,> 50 µM (not active)
CCOC(=O)C1=C(Nc2ccc(C)cc2)S/C(=C\c2cn(CC(=O)NCC3CCCO3)c3ccccc23)C1=O (stereo not given),IC50,Estrogen receptor,7.6 µM (active)
CCOC(=O)c1sc2nc(CC(=O)OC)nc(NCc3ccc(F)cc3)c2c1C,EC50,[4],> 79.4 µM (not active)
same,EC50,[5],> 79.4 µM (not active)
same,EC50,[6],> 79.4 µM (not active)
same,AC50,Cytochrome P450 2C19,5.62 µM (inconclusive)
same,AC50,Cytochrome P450 2C9,5.01 µM (inconclusive)
COc1ccc(C(=O)CSc2nnc(NC(=O)C3CC(=O)N(c4cccc(OC)c4)C3)s2)cc1 (stereo not given),IC50,[1],> 111 µM (not active)
same,IC50,[2],5.9 µM (active)
COc1ccc(Cl)cc1NC(=O)CNc1ccccc1F,IC50,[7],> 100 µM (inactive)
same,IC50,[8],> 47.1 µM (inactive)
same,IC50,[9],> 100 µM (not active)
same,EC50,[10],> 53 µM (inactive)
Cc1nnc(NC(=O)CSc2nc3c(c(=O)n2CCc2ccccc2)SC(C)C3)s1 (stereo not given),IC50,Estrogen receptor,17.5 µM (active)
c1ccc(C2=NN=C(NC3CC3)SC2)cc1,EC50,[3],1.24 µM (active)
same,IC50,[11],> 67.6 µM (inactive)
same,EC50,[12],10.5 µM (active)
same,AC50,HEK293,2.58 µM (active)
same,EC50,BJ [13],13.1 µM (active)
same,EC50,HT-1080,> 50 µM (not active)
same,EC50,BJ [14],12.4 µM (inconclusive)
same,IC50,cells,> 67.6 µM (inactive)
same,EC50,BJ [15],> 150 µM (inconclusive)
O=C(/C=C/c1ccccc1)CC(O)(c1ccccc1)C(F)(F)F (stereo not given),IC50,[16],25.9 µM (not active)
same,IC50,Vero [17],> 25 µM (active)
same,IC50,[18],1.97 µM (active)
same,CC50,Vero [19],13.6 µM (active)
COc1ccc(/N=C2\S/C(=C\c3ccc(OC(C)C(=O)O)c(OC)c3)C(=O)N2CCc2c[nH]c3ccccc23)cc1 (stereo not given),EC50,Streptococcus,4.41 µM (active)
same,IC50,[20],> 50 µM (active)
same,EC50,[21],1.86 µM (active)
same,IC50,[22],15.8 µM (active)
same,EC50,Streptokinase A,> 50 µM (not active)
same,IC50,[23],> 50 µM (inactive)
same,IC50,[24],7.55 µM (active)
Cc1cc(C(=O)N/N=C/c2c[nH]nc2-c2ccccc2)cs1,EC50,[4],> 79.4 µM (not active)
same,EC50,[5],> 79.4 µM (not active)
same,EC50,[6],> 79.4 µM (not active)
